Assay results taken from ChEMBL document CHEMBL3272189, “Orally active esters of cephalosporin antibiotics. Synthesis and biological properties of acyloxymethyl esters of 7-(D-2-amino-2-phenylacetamido)-3-[5-methyl-(1,3,4-thiadiazol-2-yl)thiomethyl]-3-cephem-4-carboxylic acid” (J Med Chem, 1977).
≈ marks a conversion by molar mass, not a printed value.

Experiments:
[1] = Drug absorption in Lai:COX (Standard)BR mouse assessed as compound remaining in gastrointestinal tract at 17 mg/kg, po after 40 mins; format: ADME, organism-based; set-up: dose 17 mg/kg, route oral; settings: read-out: Stability
[2] = Drug excretion in Lai:COX (Standard)BR mouse urine at 17 mg/kg, po after 80 mins; format: ADME, organism-based; set-up: dose 17 mg/kg, route oral; settings: read-out: Drug excretion
[3] = Drug excretion in Lai:COX (Standard)BR mouse urine at 17 mg/kg, po after 20 mins; format: ADME, organism-based; set-up: dose 17 mg/kg, route oral; settings: read-out: Drug excretion
[4] = Half life in 0.1 M sodium phosphate buffer at 50 ug/ml at pH 6.5; format: physicochemical
[5] = Drug excretion in Lai:COX (Standard)BR mouse urine at 17 mg/kg, po after 100 mins; format: ADME, organism-based; set-up: dose 17 mg/kg, route oral; settings: read-out: Drug excretion
[6] = Drug absorption in Lai:COX (Standard)BR mouse assessed as compound remaining in gastrointestinal tract at 17 mg/kg, po after 20 mins; format: ADME, organism-based; set-up: dose 17 mg/kg, route oral; settings: read-out: Stability
[7] = Half life in 0.1 M sodium phosphate buffer at 50 ug/ml at pH 4.5; format: physicochemical
[8] = Drug excretion in Lai:COX (Standard)BR mouse urine at 17 mg/kg, po after 5 mins; format: ADME, organism-based; set-up: dose 17 mg/kg, route oral; settings: read-out: Drug excretion
[9] = Drug excretion in Lai:COX (Standard)BR mouse urine at 17 mg/kg, po after 40 mins; format: ADME, organism-based; set-up: dose 17 mg/kg, route oral; settings: read-out: Drug excretion
[10] = Drug excretion in Lai:COX (Standard)BR mouse urine at 17 mg/kg, po after 60 mins; format: ADME, organism-based; set-up: dose 17 mg/kg, route oral; settings: read-out: Drug excretion
[11] = Drug excretion in Lai:COX (Standard)BR mouse urine at 17 mg/kg, po after 120 mins; format: ADME, organism-based; set-up: dose 17 mg/kg, route oral; settings: read-out: Drug excretion
[12] = Half life in 0.1 M sodium phosphate buffer at 50 ug/ml at pH 7.5; format: physicochemical
[13] = Drug excretion in Lai:COX (Standard)BR mouse urine at 17 mg/kg, sc after 120 mins; format: ADME, organism-based; set-up: dose 17 mg/kg, route subcutaneous; settings: read-out: Drug excretion
Escherichia coli = assay: Antibacterial activity against Escherichia coli assessed as growth inhibition by gradient-plate assay; format: functional
Staphylococcus aureus = assay: Antibacterial activity against penicillin-resistant, coagulase-positive Staphylococcus aureus assessed as growth inhibition by gradient-plate assay; format: functional
[14] = Drug excretion in Lai:COX (Standard)BR mouse urine at 17 mg/kg, sc after 80 mins; format: ADME, organism-based; set-up: dose 17 mg/kg, route subcutaneous; settings: read-out: Drug excretion
Klebsiella aerogenes = assay: Antibacterial activity against Enterobacter aerogenes assessed as growth inhibition by gradient-plate assay; format: functional
Serratia marcescens = assay: Antibacterial activity against Serratia marcescens assessed as growth inhibition by gradient-plate assay; format: functional
[15] = Drug excretion in Lai:COX (Standard)BR mouse urine at 17 mg/kg, sc after 5 mins; format: ADME, organism-based; set-up: dose 17 mg/kg, route subcutaneous; settings: read-out: Drug excretion
Klebsiella pneumoniae = assay: Antibacterial activity against Klebsiella pneumoniae assessed as growth inhibition by gradient-plate assay; format: functional
[16] = Drug excretion in Lai:COX (Standard)BR mouse urine at 17 mg/kg, sc after 20 mins; format: ADME, organism-based; set-up: dose 17 mg/kg, route subcutaneous; settings: read-out: Drug excretion
[17] = Drug excretion in Lai:COX (Standard)BR mouse urine at 17 mg/kg, sc after 60 mins; format: ADME, organism-based; set-up: dose 17 mg/kg, route subcutaneous; settings: read-out: Drug excretion
[18] = Drug excretion in Lai:COX (Standard)BR mouse urine at 17 mg/kg, sc after 40 mins; format: ADME, organism-based; set-up: dose 17 mg/kg, route subcutaneous; settings: read-out: Drug excretion
Blood = assay: Drug uptake in Lai:COX (Standard)BR mouse blood at 17 mg/kg, po; format: ADME, organism-based; set-up: dose 17 mg/kg, route oral; settings: in vivo
Shigella sp. = assay: Antibacterial activity against Shigella sp. assessed as growth inhibition by gradient-plate assay; format: functional
[19] = Drug excretion in Lai:COX (Standard)BR mouse urine at 17 mg/kg, sc after 100 mins; format: ADME, organism-based; set-up: dose 17 mg/kg, route subcutaneous; settings: read-out: Drug excretion
[20] = Antibacterial activity against Salmonella heidelberg assessed as growth inhibition by gradient-plate assay; format: functional, Salmonella enterica subsp. enterica serovar Heidelberg; settings: Salmonella enterica

remaining at 40 min [1] [%] | dose excreted at 80 min [2] [%] | dose excreted at 20 min [3] [%] | half-life at 50 ug/ml [4] [min] | dose excreted at 100 min [5] [%] | remaining at 20 min [6] [%] | half-life at 50 ug/ml [7] [h] | dose excreted at 40 min [9] [%] | dose excreted at 1 h [10] [%] | dose excreted at 2 h [11] [%] | half-life at 50 ug/ml [12] [min] | SMILES | MIC (Escherichia coli) [µg/mL] | MIC (Staphylococcus aureus) [µg/mL] | MIC (Klebsiella aerogenes) [µg/mL] | MIC (Serratia marcescens) [µg/mL] | MIC (Klebsiella pneumoniae) [µg/mL] | MIC (Shigella sp.) [µg/mL] | MIC [20] [µg/mL] | further results
25 | 48.2 | 20.8 | 45 | 41.8 | 40.5 | 32 | 38.9 | 43.2 | 41.5 | 25 | Cc1nnc(SCC2=C(C(=O)OCOC(=O)C(C)(C)C)N3C(=O)[C@@H](NC(=O)[C@H](N)c4ccccc4)[C@H]3SC2)s1.Cl |  |  |  |  |  |  |  | dose excreted at 5 min [8]: 3.6%
31.5 | 36.1 | 20.4 | 60 | 38.3 | 39.1 | 27 | 32.5 | 33.1 | 36.8 | 25 | CC(=O)OCOC(=O)C1=C(CSc2nnc(C)s2)CS[C@@H]2[C@H](NC(=O)[C@H](N)c3ccccc3)C(=O)N12.Cl |  |  |  |  |  |  |  | 
35 | 30.5 | 8.3 | 25 | 34 | 59 |  | 22.1 | 35 |  | 15 | Cc1nnc(SCC2=C(C(=O)OC3OC(=O)c4ccccc43)N3C(=O)[C@@H](NC(=O)[C@H](N)c4ccccc4)[C@H]3SC2)s1.Cl (stereo not given in full) |  |  |  |  |  |  |  | 
 |  |  |  |  |  |  |  |  |  |  | CC1=C(C(=O)O)N2C(=O)[C@@H](NC(=O)[C@H](N)c3ccccc3)[C@H]2SC1 [CEPHALEXIN ANHYDROUS] | 8.5 (≈ 24.5 µM) | 4.5 (≈ 13 µM) | 6.8 (≈ 19.6 µM) | 140 (≈ 403 µM) | 7 (≈ 20.1 µM) | 9 (≈ 25.9 µM) | 5.5 (≈ 15.8 µM) | 

SMILES | remaining at 40 min [1] [%] | dose excreted at 80 min [2] [%] | dose excreted at 20 min [3] [%] | half-life at 50 ug/ml [4] [min] | dose excreted at 100 min [5] [%] | remaining at 20 min [6] [%] | half-life at 50 ug/ml [7] [h] | dose excreted at 40 min [9] [%] | dose excreted at 1 h [10] [%] | dose excreted at 2 h [11] [%] | half-life at 50 ug/ml [12] [min] | MIC (Escherichia coli) [µg/mL] | MIC (Staphylococcus aureus) [µg/mL] | MIC (Klebsiella aerogenes) [µg/mL] | MIC (Serratia marcescens) [µg/mL] | MIC (Klebsiella pneumoniae) [µg/mL] | MIC (Shigella sp.) [µg/mL] | MIC [20] [µg/mL] | further results
Cc1nnc(SCC2=C(C(=O)O)N3C(=O)[C@@H](NC(=O)[C@H](N)c4ccccc4)[C@H]3SC2)s1 | 67.5 | 17.5 | 2.8 | 76 | 22.4 | 81.2 | 47 | 8.4 | 13.2 | 14.1 | 54 | 1 (≈ 2.09 µM) | 0.7 (≈ 1.47 µM) | 0.8 (≈ 1.68 µM) | 26.5 (≈ 55.5 µM) | 0.6 (≈ 1.26 µM) | 1 (≈ 2.09 µM) | 1 (≈ 2.09 µM) | dose excreted at 2 h [13]: 54.1%; dose excreted at 80 min [14]: 56.7%; dose excreted at 5 min [15]: 2.8%; dose excreted at 20 min [16]: 25%; dose excreted at 1 h [17]: 50.7%; dose excreted at 40 min [18]: 46.5%; Drug uptake (Blood): Active; dose excreted at 100 min [19]: 54.1%
